Results on 4 compounds are retold here after patent publication US20120027812A1, “INTRAOCULAR LENSES TREATED WITH ALKYLPHOSPHOCHOLINES FOR PHARMACOLOGICAL AFTERCATARACT PROPHYLAXIS” (priority 2009, published 2012).

Data set [1] is described as follows: Stability of the coating to washing with physiological saline solution. It counts as physicochemical. Particulars: repeated washing or rinsing with physiological saline solution. An excerpt: 1.3 Stability of the coating 10 intraocular lenses were coated with erufosin, as described in example 1.2. The lenses were subsequently each separately transferred into new test tubes and subjected to four washing steps with physiological saline solution. In a further extraction step using methanol/acetonitrile (ratio 9:1), the erufosin adhering to the lenses was removed and determined by mass spectroscopy. The amount of erufosin determined was between […] per lens.

Data set [2] relates to human lens epithelial cells. In words: APC-coated intraocular lens laid on cultured lens epithelial cells (Example 3, FIG. 6 and 7). It is filed as cell-based. The note with it: as coating on IOLs of hydrophobic acrylates, hydrophilic acrylates and silicones; MTT. As to the method: A tetrazolium reduction assay [MTT (3-[4,5-dimethylthiazol-2-yl]-2,5-diphenyltetrazolium bromide] (Sigma-Aldrich) was carried out to determine the cell count. The intraocular lenses were removed, the cells were washed with PBS and incubated with the MTT reagent for 1 hour at 37° C. Only vital cells metabolise the solution. Subsequently, the cell membrane was dissolved with DMSO (dimethylsulphoxide) and the optical thickness was measured in the ELISA reader at 550 nm. In this case, the optical thickness correlates with the number of proliferating cells.
The intraocular lenses coated with alkylphosphocholines are introduced into a cell culture volume of 500 μl, which corresponds to the volume of the human lens capsular bag in which the intraocular lenses are implanted in the human cataract operation. Moreover, the coated intraocular lenses in vitro are introduced into a cell culture with human lens epithelial cells which are already proliferating. […]
Effectiveness of an Intraocular Lens Coated with APCs in the Prophylaxis of Aftercataract Intraocular lenses are coated with APC, as explained in Example 1,m and kept sterile at room temperature. […] After 3, 5 and 7 days, the lenses are removed and the cell count of the cells left in the cell culture dishes are determined, as described in 2.1, by cell counters and by the MTT test. […]

In data set [3] the test system is rat retina. In words: Functional analysis on retina ex vivo (electroretinogram). Particulars: concentration of up to 25 μM in the total solution.
Data set [4] has as its system Müller glial cells and subretinal pigment epithelial cells. The note with it: single intravitreal administration one day after induced retinal detachment; cited from earlier work.
In a further data set the test system is cat eyes (retina). In words: Long-term tolerance after intravitreal administration in cat eyes. It counts as in vivo. Particulars: 28 days after intravitreal administration.
The next data set deals with rat eyes (retina). The note with it: seven days after a single injection into the vitreous body; cited from earlier work.
For data set [5], the system named is rat retina. Particulars: clinically administered doses (4 mg/ml); cited from earlier work.

In the case of `CCCCCCCC/C=C\CCCCCCCCCCCCOP(=O)([O-])OCCC[N+](C)(C)C` [ErPC3, erucylphosphohomocholine], the “removal of the coating from the lenses” value in data set [1] is given as “no noticeable removal”. The “cell growth of lens epithelial cells which are already proliferating” value in data set [2] is “can inhibit the cell growth”. In the data set on rat retina [3], the “changes in the electroretinogram” value was “did not produce any changes in the electroretinogram”. For the same compound, in data set [4], the “intraretinal proliferation of Müller glial cells and subretinal pigment epithelial cells” value was “significant inhibition”; the “morphologically detectable toxic side-effects” value is given as “without morphologically detectable toxic side-effects”.
For `CCCCCCCC/C=C\CCCCCCCCCCCCOP(=O)([O-])OCC[N+](C)(C)C` [ErPC, erucylphosphocholine], the retinal toxicity result in the data set on cat eyes (retina) is recorded as “no sign of retinal toxicity”. In addition, in the data set with rat eyes (retina), the “damage to the retinal function (light and electron microscopy, ERG)” value is listed as “no damage to the retinal function could be detected”.
For `CCCCCCCC/C=C\CCCCCCCCOP(=O)([O-])OCC[N+](C)(C)C` [OIPC, oleylphosphocholine], the “cell growth of lens epithelial cells which are already proliferating” value in data set [2] is “can inhibit the cell growth”.
Consider `C[C@]12C=CC(=O)C=C1CC[C@H]1[C@@H]3C[C@@H](O)[C@](O)(C(=O)CO)[C@@]3(C)C[C@H](O)[C@@]12F` [triamcinolone], for which the “retinal toxicity on the retina ex vivo test subject” value with rat retina [5] was “retinal toxicity”.
